Patent US10758534B2 (Vertex Pharmaceuticals Incorporated, priority 2014, dated 2020)
Read-outs that look alike come from different tables or passages of the source.

Target: T1, F508del (Homo sapiens, UniProt P13569, DEL508-508)
T1 construct: expressed in transfected cells
Experiment: Protocol 2: FRET membrane potential optical assay (VIPR), identification of correction compounds
Assay type: cell-based
Summary of the method: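 NIH3T3 mouse fibroblasts stably expressing F508del-CFTR incubated with compound 16 h at 37 °C in serum-free medium, then loaded with CC2-DMPE/DiSBAC2(3) FRET dyes. Channel activated with 10 μM forskolin plus 20 μM genistein in Cl⁻-free (gluconate) bath; depolarisation from Cl⁻ efflux read on VIPR II.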

[1] = Table 3, compounds of Table 1 as modulators of CFTR activity, protocol not stated
[2] = F508del CFTR modulator activity, compounds of Table 1, read-out: EC30

T1 sequence (P13569 with tags, fused parts or gaps DEL508-508): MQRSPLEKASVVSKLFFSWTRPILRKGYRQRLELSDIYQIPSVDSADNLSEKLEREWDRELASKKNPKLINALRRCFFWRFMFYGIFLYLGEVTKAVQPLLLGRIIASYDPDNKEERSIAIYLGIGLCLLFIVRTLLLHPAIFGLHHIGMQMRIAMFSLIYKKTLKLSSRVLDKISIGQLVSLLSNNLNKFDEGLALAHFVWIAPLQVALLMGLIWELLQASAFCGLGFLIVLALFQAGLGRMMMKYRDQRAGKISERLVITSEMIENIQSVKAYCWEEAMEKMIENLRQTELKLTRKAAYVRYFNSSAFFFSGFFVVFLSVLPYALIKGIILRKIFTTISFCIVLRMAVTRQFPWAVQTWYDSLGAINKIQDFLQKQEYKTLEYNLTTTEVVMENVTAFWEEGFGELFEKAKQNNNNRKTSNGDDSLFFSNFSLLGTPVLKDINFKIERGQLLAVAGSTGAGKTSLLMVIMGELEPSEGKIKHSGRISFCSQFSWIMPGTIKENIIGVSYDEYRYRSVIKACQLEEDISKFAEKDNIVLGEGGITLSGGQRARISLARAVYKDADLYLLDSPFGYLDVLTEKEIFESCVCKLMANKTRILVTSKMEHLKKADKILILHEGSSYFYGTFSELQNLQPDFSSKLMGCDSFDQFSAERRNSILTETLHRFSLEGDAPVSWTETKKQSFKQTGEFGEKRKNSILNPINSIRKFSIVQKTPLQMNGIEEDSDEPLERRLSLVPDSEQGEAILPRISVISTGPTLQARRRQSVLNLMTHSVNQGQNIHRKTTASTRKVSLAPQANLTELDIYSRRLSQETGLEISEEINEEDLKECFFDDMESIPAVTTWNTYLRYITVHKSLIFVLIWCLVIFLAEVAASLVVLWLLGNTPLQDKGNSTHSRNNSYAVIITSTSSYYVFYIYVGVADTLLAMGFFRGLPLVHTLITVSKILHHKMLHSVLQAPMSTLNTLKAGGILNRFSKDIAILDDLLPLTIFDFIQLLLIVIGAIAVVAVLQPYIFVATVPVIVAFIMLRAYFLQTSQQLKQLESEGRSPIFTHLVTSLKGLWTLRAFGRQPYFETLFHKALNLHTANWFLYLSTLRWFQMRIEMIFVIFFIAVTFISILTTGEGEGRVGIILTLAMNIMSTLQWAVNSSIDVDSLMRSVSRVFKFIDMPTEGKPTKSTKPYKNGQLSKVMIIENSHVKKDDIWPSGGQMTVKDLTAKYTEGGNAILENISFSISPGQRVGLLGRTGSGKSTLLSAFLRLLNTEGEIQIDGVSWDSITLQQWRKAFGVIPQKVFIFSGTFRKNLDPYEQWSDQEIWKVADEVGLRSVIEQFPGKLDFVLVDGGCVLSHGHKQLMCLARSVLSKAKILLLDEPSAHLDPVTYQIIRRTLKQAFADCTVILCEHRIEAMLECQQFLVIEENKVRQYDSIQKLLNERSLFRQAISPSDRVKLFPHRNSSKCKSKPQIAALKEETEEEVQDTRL

SMILES | EC30 [1] | EC30 [2] | other results
C[C@@H]1CN(c2nc(C3=CC4CCC3C4)ccc2C(=O)NS(=O)(=O)c2cccc(N)n2)C(C)(C)C1 (stereo partly drawn) [Compound 2703] | – | – | EC30: < 3 µM
CC[C@@H]1CCCN1c1nc(-c2cc(F)cc(OCC(C)C)c2)ccc1C(=O)NS(=O)(=O)c1ccn[nH]1 [Compound 591, 2-(2-ethylpyrrolidin-1-yl)-6-(3-fluoro-5-isobutoxy-phenyl)-N-(1H-pyrazol-5-ylsulfonyl)pyridine-3-carboxamide] | +++ (“+++” means <3 uM) | – | –
CC(C)COc1cc(F)cc(-c2ccc(C(=O)NS(=O)(=O)c3cccc(N)n3)c(N3CC[C@H](C)C3)n2)c1 [Compound 678, N-[(6-amino-2-pyridyl)sulfonyl]-6-(3-fluoro-5-isobutoxy-phenyl)-2-[(3S)-3-methylpyrrolidin-1-yl]pyridine-3-carboxamide] | +++ (“+++” means <3 uM) | – | –
Cc1cc(C)c(Cn2nc(C(C)(C)C)cc2C(=O)NS(=O)(=O)c2ccccc2)c(C)c1 [Compound 45, N-(benzenesulfonyl)-5-tert-butyl-2-[(2,4,6-trimethylphenyl)methyl]pyrazole-3-carboxamide] | +++ (“+++” means <3 uM) | – | –
Cc1cc(C)c(Oc2nc(-c3cc(F)cc(OCC(C)C)c3)ccc2C(=O)NS(=O)(=O)c2cccc(C(=O)O)n2)c(C)c1 [Compound 461, 6-[[6-(3-fluoro-5-isobutoxy-phenyl)-2-(2,4,6-trimethylphenoxy)pyridine-3-carbonyl]sulfamoyl]pyridine-2-carboxylic acid] | ++ (“++” means between 3 uM and 10 uM) | – | –
Cc1cc(C)c(Oc2nc(Cc3ccccc3)ccc2C(=O)NS(=O)(=O)c2cccc(N)n2)c(C)c1 [Compound 1, N-[(6-amino-2-pyridyl)sulfonyl]-6-benzyl-2-(2,4,6-trimethylphenoxy)pyridine-3-carboxamide] | +++ (“+++” means <3 uM) | – | –
Cc1ccc(-c2nc(C(C)(C)C)ccc2C(=O)NS(=O)(=O)c2ccc(N)cc2)cc1 [Compound 297, N-(4-aminophenyl)sulfonyl-6-tert-butyl-2-(p-tolyl)pyridine-3-carboxamide] | ++ (“++” means between 3 uM and 10 uM) | – | –
CC(C)COc1cccc(-c2ccc(C(=O)NS(=O)(=O)c3cccc(N)n3)c(N3[C@H](C)CC[C@@H]3C)n2)n1 [Compound 432, N-[(6-amino-2-pyridyl)sulfonyl]-2-[(2S,5R)-2,5-dimethylpyrrolidin-1-yl]-6-(6-isobutoxy-2-pyridyl)pyridine-3-carboxamide] | +++ (“+++” means <3 uM) | – | –
Cc1cccc(-c2cc(C(=O)NS(=O)(=O)c3ccccc3)n(Cc3c(C)cccc3C)n2)c1 [Compound 202, N-(benzenesulfonyl)-2-[(2,6-dimethylphenyl)methyl]-5-(m-tolyl)pyrazole-3-carboxamide] | +++ (“+++” means <3 uM) | – | –
CC(c1ccccc1)n1c(C(=O)NS(=O)(=O)c2ccncc2)cc2c(F)cccc21 (stereo not drawn) [Compound 192, 4-fluoro-1-(1-phenylethyl)-N-(4-pyridylsulfonyl)indole-2-carboxamide] | +++ (“+++” means <3 uM) | – | –
Cc1c(Cn2nc(C(C)(C)C)cc2C(=O)NS(=O)(=O)c2cccc3[nH]ccc23)cccc1C(F)(F)F [Compound 60, 5-tert-butyl-N-(1H-indol-4-ylsulfonyl)-2-[[2-methyl-3-(trifluoromethyl)phenyl]methyl]pyrazole-3-carboxamide] | +++ (“+++” means <3 uM) | – | –
Cc1cccc(C)c1Cn1nc(-c2cccc(OC(C)C)c2)cc1C(=O)NS(=O)(=O)c1ccccc1 [Compound 133, N-(benzenesulfonyl)-2-[(2,6-dimethylphenyl)methyl]-5-(3-isopropoxyphenyl)pyrazole-3-carboxamide] | +++ (“+++” means <3 uM) | – | –

Second part, led by results:

EC30 [1] | EC30 [2] | SMILES | other results
– | < 3 µM | CC1CN(c2ncccc2C(=O)NS(=O)(=O)c2cccc(NCC3CCCC3)n2)C(C)(C)C1 (stereo not drawn) [Compound 2026, N—[[6-(cyclopentylmethylamino)-2-pyridyl]sulfonyl]-2-(2,2,4-trimethylpyrrolidin-1-yl)pyridine-3-carboxamide] | –
– | < 3 µM | CC(C)[C@@H](C)Oc1nc(N2C[C@@H](C)CC2(C)C)c(C(=O)NS(=O)(=O)c2cccc(N)n2)cc1F [Compound 2020, N-[(6-amino-2-pyridyl)sulfonyl]-6-[(1R)-1,2-dimethylpropoxy]-5-fluoro-2-[(4S)-2,2,4-trimethylpyrrolidin-1-yl]pyridine-3-carboxamide] | –
– | < 3 µM | CC1CN(c2ncccc2C(=O)NS(=O)(=O)c2cccc(Oc3ccc(OC(C)(C)C)cc3)n2)C(C)(C)C1 (stereo not drawn) [Compound 2739] | –
– | < 3 µM | CC1CN(c2ncc(/C=C/c3ccc(C(F)(F)F)cc3)cc2C(=O)NS(=O)(=O)c2cccc(N)n2)C(C)(C)C1 (stereo not drawn) [Compound 2014, N-[(6-amino-2-pyridyl)sulfonyl]-5-[(E)-2-[4-(trifluoromethyl)phenyl]vinyl]-2-(2,2,4-trimethylpyrrolidin-1-yl)pyridine-3-carboxamide] | –
– | 3 to 10 µM | C[C@@H]1CN(c2nc(-c3cccc(C(F)(F)F)c3)ccc2C(=O)NS(=O)(=O)N2CC[C@H](N)C2)C(C)(C)C1 [Compound 2220, N-[(3S)-3-aminopyrrolidin-1-yl]sulfonyl-6-[3-(trifluoromethyl)phenyl]-2-[(4S)-2,2,4-trimethylpyrrolidin-1-yl]pyridine-3-carboxamide] | –
– | < 3 µM | Cc1cc(C)cc(-c2ccc(C(=O)NS(=O)(=O)c3ccc[nH]c3=O)c(N3C[C@@H](C)CC3(C)C)n2)c1 [Compound 2626, 6-(3,5-dimethylphenyl)-N-[(2-oxo-1H-pyridin-3-yl)sulfonyl]-2-[(4S)-2,2,4-trimethylpyrrolidin-1-yl]pyridine-3-carboxamide] | –
+++ (“+++” means <3 uM) | – | CNc1cccc(S(=O)(=O)NC(=O)C2Cc3ccccc3CCN2Cc2c(C)cc(C)cc2C)n1 (stereo not drawn) [Compound 747, N-[[6-(methylamino)-2-pyridyl]sulfonyl]-3-[(2,4,6-trimethylphenyl)methyl]-1,2,4,5-tetrahydro-3-benzazepine-4-carboxamide] | –
– | < 3 µM | CCOc1ccc(-c2ccc(C(=O)NS(=O)(=O)c3cccnc3N)c(N3C[C@@H](C)CC3(C)C)n2)cc1F [Compound 2403, N-[(2-amino-3-pyridyl)sulfonyl]-6-(4-ethoxy-3-fluoro-phenyl)-2-[(4S)-2,2,4-trimethylpyrrolidin-1-yl]pyridine-3-carboxamide] | –
+++ (“+++” means <3 uM) | – | COc1ccccc1-c1cc(C(=O)NS(=O)(=O)c2ccccc2)n(Cc2c(C)cccc2C)n1 [Compound 347, N-(benzenesulfonyl)-2-[(2,6-dimethylphenyl)methyl]-5-(2-methoxyphenyl)pyrazole-3-carboxamide] | –
+++ (“+++” means <3 uM) | – | Cc1cc(C)c(Oc2nc(C(C)(C)C)ccc2C(=O)NS(=O)(=O)c2cccnc2)c(C)c1 [Compound 330, 6-tert-butyl-N-(3-pyridylsulfonyl)-2-(2,4,6-trimethylphenoxy)pyridine-3-carboxamide] | –
+++ (“+++” means <3 uM) | – | Cc1cc(C)c(Oc2nc(C(C)(C)C)ccc2C(=O)NS(=O)(=O)c2cccn(C)c2=O)c(C)c1 [Compound 667, 6-tert-butyl-N-[(1-methyl-2-oxo-3-pyridyl)sulfonyl]-2-(2,4,6-trimethylphenoxy)pyridine-3-carboxamide] | –
– | 3 to 10 µM | Cc1ccc(O)c(-c2ccc(C(=O)NS(=O)(=O)c3ccc[nH]c3=O)c(N3C[C@@H](C)CC3(C)C)n2)c1 [Compound 2174, 6-(2-hydroxy-5-methyl-phenyl)-N-[(2-oxo-1H-pyridin-3-yl)sulfonyl]-2-[(4S)-2,2,4-trimethylpyrrolidin-1-yl]pyridine-3-carboxamide] | –
